Here are results for one compound from patent US9994554B2, “Barbiturate and thiobarbiturate compounds for use in cancer therapy” (NUHOPE, LLC, priority 2011, dated 2018).

Values joined by “and” are separate entries in the source; they are usually repeats but may differ in a detail not shown here. Identical values can stand only once.

In one data set the test system is SW1088. The experiment in a line: Cytotoxicity (MTS or SRB assay), SW1088. The class given is cell-based, human. (In general: Tetrazolium dyes change colour on reduction, which living cells bring about.)
For data set [1], the system named is U87-MG or CCF-STTG1 glioma cells. Description: Intracranial orthotopic xenograft brain tumor model. Particulars: 25 mg/kg i.p. once a week for 7 weeks. The procedure:
The effect of CC-I in an intracranial, orthotopic xenograft brain tumor model was analysed. The caudate putamen region of female, athymic nude mice was injected with 10^6 human U87-MG (Temodar®-sensitive) or CCF-STTG1 (Temodar®-resistant) glioma cells in a volume of 10 μl. At one week post-injection, tumor volume was measured using Ti weighted MRI contrast (7T MR imaging system). Thereafter, CC-I was injected intraperitoneally, once a week for 7 weeks at a concentration of 25 mg/kg body weight. Tumor size was measured weekly. […] Liver and kidney toxicity (total bilirubin, blood urea nitrogen (BUN), creatine, aspartate aminotransferase (SGOT/AST), alanine aminotransferase (SGPT/ALT), and alkaline phosphatase) were also determined using an automated chemistry analyzer machine (Roche Cobase MIRA) and kits manufactured by Thermo Electron.

The test system of a further data set is CCF-STTG1 cells. The experiment in a line: FITC-Annexin V/propidium iodide apoptosis assay. The class given is cell-based, human. How it is done:
An FITC-labeled Annexin V/propidium iodide apoptosis assay kit (Molecular Probes) was used to determine whether CC-I induces apoptosis in an astrocytoma cell line. […] The percentage of apoptotic cells by the CC-I treatment in CCF-STTG1 cells is from 10.9±0.16% at 5 pig/ml ([…]) to 48.7±0.33% at 10 μg/ml (36.2 μM). By comparison, the positive control, actinomycin D, induced apoptosis in 47.8±0.04% of the cells at 0.05 μg/ml (39.8 nM).

A further data set deals with CCF-STTG1. The experiment in a line: cells. How it is done:
Human neuroblastoma cell lines were cultured in Dulbecco's Modified Eagle Medium (DMEM)/F12 media. Human glioma cells were ordered from American Type Culture Collection (ATCC, Manassas, Va.), and maintained in DMEM with 4×10^−3M L-glutamine, 100 U/ml penicillin, 100 μg/ml streptomycin, and 10% fetal bovine serum (FBS). All experiments were performed at 37° C. in 5% CO2 atmosphere under cell culture conditions. Prior to γ-radiation or exposure to chemotherapeutic agents, the glioma cells were plated at a density of 156 to 8,000 cells per well in 96 well plates to account for differences in growth rates, and to obtain similar cell densities for the experimental manipulations, and cultured overnight. Then cells received different dosages of γ-radiation from a ^60Co source GammaCell 220 (Nordion International Inc, Ontario, Canada) or chemotherapeutic agents for another 2-6 days. Cell cytotoxicity assay was determined by MTS [3-(4,5-dimethylthiazol-2-yl)-5-(3-carboxymethoxyphenyl)-2-(4-sulfophenyl)-2H-tetrazolium, inner salt] Cell Proliferation Assay (Promega, Madison, Wis.) or sulforhodamine B (SRB) assay at the end of the exposure period (47, 48).
Temodar®-resistant cell lines were used to screen for compounds having the ability to decelerate the growth of, or kill, Temodar®-resistant cells. The efficacy of over 15,000 different compounds in the Drug Discovery Core at Pennsylvania State Hershey Medical Center was tested on Temodar®-resistant human neuroblastoma SH-SY5Y and human glioma CCF-STTG1 cell lines with a colorimetric cytotoxicity assay, the sulforhodamine B (SRB) assay (53).
Chemotype moiety compounds of CC-I were also tested on the Temodar-resistant CCF-STTG1 and Temodar®-sensitive U87-MG cell lines. The glioma cell culture and treatment is as described above.
The human glioma CCF-STTG1 cell lines were plated at a density of 5,000 cells per well in 96 well plates under standard DMEM cell culture conditions and then exposed to different concentrations of CC-I, merbarone, or ICRF-193 for 5 days. Merbarone and ICRF-193 are both topoisomerase II inhibitors (55, 56).

In a further data set the test system is CCF-STTG1 cell tumors. The experiment in a line: Athymic nude mouse subcutaneous glioma tumor model. Particulars: 25 mg/kg i.p. once a week for 7 weeks. The procedure:
The efficacy and toxicity of CC-I was tested in vivo using the athymic nude mouse subcutaneous tumor model. Ten million cells of the Temodar®-sensitive (SW1088) or Temodar®-resistant (CCF-STTG1) malignant glioma cell lines were injected into the flank of one-month-old, female athymic nude mice. When the tumor reached 32 mm^3 in size (week I on graph), CC-I (25 mg/kg) was injected intraperitoneally once a week for 7 weeks.

Another data set relates to C282Y/SH-SY5Y. The experiment in a line: cells. Conditions: C282Y HFE transfected human neuroblastoma SH-SY5Y. The class given is cell-based.

Procedure for C282Y/SH-SY5Y: Human neuroblastoma cell lines were cultured in Dulbecco's Modified Eagle Medium (DMEM)/F12 media. Human glioma cells were ordered from American Type Culture Collection (ATCC, Manassas, Va.), and maintained in DMEM with 4×10^−3M L-glutamine, 100 U/ml penicillin, 100 μg/ml streptomycin, and 10% fetal bovine serum (FBS). All experiments were performed at 37° C. in 5% CO2 atmosphere under cell culture conditions. Prior to γ-radiation or exposure to chemotherapeutic agents, the glioma cells were plated at a density of 156 to 8,000 cells per well in 96 well plates to account for differences in growth rates, and to obtain similar cell densities for the experimental manipulations, and cultured overnight. […] Cell cytotoxicity assay was determined by MTS [3-(4,5-dimethylthiazol-2-yl)-5-(3-carboxymethoxyphenyl)-2-(4-sulfophenyl)-2H-tetrazolium, inner salt] Cell Proliferation Assay (Promega, Madison, Wis.) or sulforhodamine B (SRB) assay at the end of the exposure period (47, 48).
Procedure for SW1088: Human glioma cells were ordered from American Type Culture Collection (ATCC, Manassas, Va.), and maintained in DMEM with 4×10^−3M L-glutamine, 100 U/ml penicillin, 100 μg/ml streptomycin, and 10% fetal bovine serum (FBS). All experiments were performed at 37° C. in 5% CO2 atmosphere under cell culture conditions. […] Then cells received different dosages of γ-radiation from a ^60Co source GammaCell 220 (Nordion International Inc, Ontario, Canada) or chemotherapeutic agents for another 2-6 days. Cell cytotoxicity assay was determined by MTS [3-(4,5-dimethylthiazol-2-yl)-5-(3-carboxymethoxyphenyl)-2-(4-sulfophenyl)-2H-tetrazolium, inner salt] Cell Proliferation Assay (Promega, Madison, Wis.) or sulforhodamine B (SRB) assay at the end of the exposure period (47, 48).

One may read the IC50 as the point on the concentration scale where inhibition reaches its midpoint. As to `CCN1C(=O)C(=C/C=C/c2ccco2)C(=O)NC1=S` [CC-I], in the data set on SW1088 (SW-1088 astrocytoma cells), the LD50 entry was “≈ 0.5 μg/ml and ~1.7 μM”. In addition, the IC50 in the data set on SW1088 (human astrocytoma or glioblastoma cell line, read-out: IC50 (μM) SW1088) turned out to be 1.7 µM. Besides, in data set [1], the “body weight of mice” value was “not affected”; the “liver and kidney toxicity (blood chemistry)” value is “no liver or kidney toxicity”; the “survival of tumor-bearing mice” value is listed as “extended survival”. Also, the intracranial tumor growth entry in data set [1] (Temodar-resistant and -sensitive tumors) is reported as “inhibited tumor growth”. The “percentage of apoptotic cells” value in the data set on CCF-STTG1 cells (CCF-STTG1, at 10 μg/ml (36.2 μM)) is listed as 48.7±0.33%. Moreover, the “percentage of apoptotic cells” value in the data set with CCF-STTG1 cells (CCF-STTG1, at 5 pig/ml (18.1 µM)) was determined as 10.9±0.16%. Further, the “cytotoxicity compared with merbarone or ICRF-193” value in the data set with CCF-STTG1 (CCF-STTG1, 5 days) is on record as “more cytotoxic”. In the data set on CCF-STTG1 (read-out: IC50 (μM) CCF-STTG1, human astrocytoma or glioblastoma cell line, Temodar-resistant), the IC50 is 4.3 µM. In the data set on CCF-STTG1 cell tumors, the “body weight of the mice” value is “not affected” and the “liver or kidney toxicity” value is reported as “No liver or kidney toxicity”. In addition, the “growth of subcutaneous tumors” value in the data set on CCF-STTG1 cell tumors (CCF-STTG1 tumors, nude mice) is given as “completely inhibited”. In the data set with C282Y/SH-SY5Y, this compound had an IC50 of 1.8 µM.
